Assay results: PubChem BioAssay (NCI)
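Five concentrations, 48 hours, 96-well plates. TGI denotes the concentration required for complete inhibition of growth.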

Key:
Experiment in all cases: NCI-60 cell line screen, 48 h
MOLT-4 leukemia = tested on: MOLT-4 leukemia
DU-145 prostate = tested on: DU-145 prostate
NCI-H226 lung = tested on: NCI-H226 lung
MALME-3M melanoma = tested on: MALME-3M melanoma
IGROV1 ovarian = tested on: IGROV1 ovarian
NCI/ADR-RES ovarian = tested on: NCI/ADR-RES ovarian
HCT-116 colon = tested on: HCT-116 colon
SN12C renal = tested on: SN12C renal
MDA-N = tested on: MDA-N
UACC-257 melanoma = tested on: UACC-257 melanoma
OVCAR-5 ovarian = tested on: OVCAR-5 ovarian
LOX IMVI melanoma = tested on: LOX IMVI melanoma
BT-549 breast = tested on: BT-549 breast

SMILES	TGI (MOLT-4 leukemia)	TGI (DU-145 prostate)	TGI (NCI-H226 lung)	TGI (MALME-3M melanoma)	TGI (IGROV1 ovarian)	TGI (NCI/ADR-RES ovarian)	TGI (HCT-116 colon)	TGI (SN12C renal)	TGI (MDA-N)	TGI (UACC-257 melanoma)	TGI (OVCAR-5 ovarian)	TGI (LOX IMVI melanoma)	TGI (BT-549 breast)
CCOC(=O)C(=CNC(=S)Nc1c(CC)cccc1CC)C(=O)OCC	> 100 µM	> 100 µM	> 100 µM	> 100 µM	> 100 µM	> 100 µM	> 100 µM	> 100 µM	> 100 µM	> 100 µM	> 100 µM	> 100 µM	–
COc1ccc2c(c1)N=C1CSC(c3c(Cl)cccc3[N+](=O)[O-])N1C2 (stereo not drawn)	> 100 µM	–	84.6 µM	> 100 µM	> 100 µM	> 100 µM	> 100 µM	> 100 µM	> 100 µM	> 100 µM	> 100 µM	> 100 µM	62.9 µM
C/C(=N/NC(=S)NCCc1ccccn1)c1cnccn1	41.4 µM	> 100 µM	–	> 100 µM	> 100 µM	–	> 100 µM	74.7 µM	> 100 µM	> 100 µM	> 100 µM	40.1 µM	> 100 µM
CCCCCCCSCC1C(=O)C23C(O)C1CCC2C12COC3(O)C(O)C1C(C)(C)CCC2O (stereo not drawn)	28.2 µM	–	33 µM	27.4 µM	36.2 µM	–	18.7 µM	23.6 µM	–	19.4 µM	31.4 µM	29.2 µM	–
CC[C@](C)(O)C(=O)O[C@H]1C(=O)O[C@@H]2C[C@H]3C(C)=C[C@H](O)[C@@H](O)[C@]3(C)[C@H]3[C@@]4(O)OC[C@]32[C@@H]1[C@@H](C)[C@H]4O	27.5 µM	–	81.2 µM	34.1 µM	52.5 µM	> 205 µM	89.2 µM	310 µM	–	149 µM	291 µM	68.4 µM	–
CC(C)(C)c1cc(C(=O)/C=C/c2ccc3c(c2)CCO3)cc(C(C)(C)C)c1O	> 31.3 µM	–	> 28.4 µM	> 100 µM	> 100 µM	1.05 µM	> 33.7 µM	> 33.9 µM	–	–	> 27.6 µM	> 100 µM	> 63.6 µM
Nc1ccccc1OCc1cc(=O)c(OCc2ccccc2)co1	> 100 µM	> 100 µM	–	> 100 µM	–	> 100 µM	> 100 µM	0.823 µM	> 100 µM	81.7 µM	> 100 µM	> 100 µM	> 100 µM
CC1=NN(C(=O)c2ccccc2O)C(c2ccccc2Cl)C1C(=O)Nc1ccccc1 (stereo not drawn)	> 85.7 µM	> 43.5 µM	8.02 µM	51.9 µM	> 32.4 µM	> 49.5 µM	–	> 44.8 µM	> 100 µM	> 100 µM	> 43.7 µM	> 36.5 µM	–
O=C(n1c(=O)n(-c2ccc(Cl)cc2)c(=O)n1C(=O)C(Cl)(Cl)Cl)C(Cl)(Cl)Cl	> 100 µM	> 100 µM	–	> 100 µM	> 100 µM	> 100 µM	> 100 µM	> 100 µM	> 100 µM	> 100 µM	–	> 100 µM	> 100 µM
O=Cc1ccc(-c2cccc([N+](=O)[O-])c2)s1	> 100 µM	> 100 µM	> 100 µM	–	> 100 µM	> 100 µM	> 100 µM	> 100 µM	–	> 100 µM	> 100 µM	> 100 µM	> 100 µM
